Patent US9242996B2 (Novartis AG, priority 2013, dated 2016)

Target: activated ERK2 (Homo sapiens (Human), UniProt P28482)
Assay: Activated ERK2 (20 pM) Kinase Assay (AlphaScreen, ERKtide phosphorylation)
Type: biochemical
Settings: 0.02 nM ERK2, 400 nM ERKtide peptide, 35 μM ATP, 30 min preincubation
Outline: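 AlphaScreen read-out (anti-phospho-EGFR Thr669 antibody, protein A acceptor/streptavidin donor beads) of ERKtide (400 nM) phosphorylation by 20 pM activated ERK2 at 35 μM ATP.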

activated ERK2, sequence (P28482 whole entry): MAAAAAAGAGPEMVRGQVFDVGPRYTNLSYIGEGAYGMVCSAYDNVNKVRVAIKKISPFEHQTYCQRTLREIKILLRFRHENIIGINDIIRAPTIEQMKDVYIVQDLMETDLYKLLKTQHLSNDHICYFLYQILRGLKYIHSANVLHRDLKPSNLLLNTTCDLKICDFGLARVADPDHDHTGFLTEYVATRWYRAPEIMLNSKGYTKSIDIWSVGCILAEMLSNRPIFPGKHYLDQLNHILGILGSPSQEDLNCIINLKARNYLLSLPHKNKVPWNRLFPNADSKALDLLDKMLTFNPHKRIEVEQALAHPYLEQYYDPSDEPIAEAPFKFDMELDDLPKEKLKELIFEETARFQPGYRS

| SMILES | IC50 [nM] |
| --- | --- |
| NC[C@@H](NC(=O)c1ccc(-c2nc([C@H]3CC[C@H](O)CC3)cnc2N)cc1F)c1cc(F)cc(Br)c1 [Example 342, N-((S)-2-amino-1-(3-bromo-5-fluorophenyl)ethyl)-4-(3-amino-6-((1r,4S)-4-hydroxycyclohexyl)pyrazin-2-yl)-2-fluorobenzamide] | 0.0173 |
| NC[C@@H](NC(=O)c1ccc(-c2nc([C@H]3CC[C@H](O)CC3)cnc2N)cc1F)c1cccc(I)c1 [Example 343, N-((S)-2-amino-1-(3-iodophenyl)ethyl)-4-(3-amino-6-((1r,4S)-4-hydroxy-cyclohexyl)pyrazin-2-yl)-2-fluorobenzamide] | 0.011 |
| Nc1ncc([C@H]2CC[C@H](O)CC2)nc1-c1ccc(C(=O)N[C@H](CO)c2cc(F)cc(I)c2)c(F)c1 [Example 344, 4-(3-amino-6-((1r,4S)-4-hydroxy-cyclohexyl)pyrazin-2-yl)-2-fluoro-N-((S)-1-(3-fluoro-5-iodophenyl)-2-hydroxyethyl) benzamide] | 0.00977 |
| Nc1ncc([C@H]2CC[C@@H](O)CC2)nc1-c1ccc(C(=O)N[C@H](CO)c2cc(F)cc(I)c2)c(F)c1 [Example 345, 4-(3-amino-6-((1s,4R)-4-hydroxy-cyclohexyl)pyrazin-2-yl)-2-fluoro-N-((S)-1-(3-fluoro-5-iodophenyl)-2-hydroxyethyl) benzamide] | 0.0956 |
| CNC[C@@H](NC(=O)c1ccc(-c2nc([C@@H]3CC[C@@H](O)[C@@H](F)C3)cnc2N)cc1F)c1cc(F)cc(Br)c1 [Example 355, 4-(3-amino-6-((1R,3S,4R)-3-fluoro-4-hydroxy-cyclohexyl)pyrazin-2-yl)-N-((S)-1-(3-bromo-5-fluorophenyl)-2-(methylamino)ethyl)-2-fluorobenzamide] | 0.023 |
| CNC[C@@H](NC(=O)c1ccc(-c2nc([C@H]3CC[C@H](O)[C@H](F)C3)cnc2N)cc1F)c1cc(F)cc(Br)c1 [Example 356, 4-(3-amino-6-((1S,3R,4S)-3-fluoro-4-hydroxy-cyclohexyl)pyrazin-2-yl)-N-((S)-1-(3-bromo-5-fluorophenyl)-2-(methylamino)ethyl)-2-fluorobenzamide] | 0.0317 |
| CNC[C@@H](NC(=O)c1ccc(-c2nc([C@H]3CC[C@H](O)[C@@H](F)C3)cnc2N)cc1F)c1cc(F)cc(I)c1 [Example 357, 4-(3-amino-6-((1S,3S,4S)-3-fluoro-4-hydroxy-cyclohexyl)pyrazin-2-yl)-2-fluoro-N-((S)-1-(3-fluoro-5-iodophenyl)-2-(methylamino)ethyl)benzamide] | 0.0143 |
| CNC[C@@H](NC(=O)c1ccc(-c2nc([C@@H]3CC[C@@H](O)[C@H](F)C3)cnc2N)cc1F)c1cc(F)cc(I)c1 [Example 358, 4-(3-amino-6-((1R,3R,4R)-3-fluoro-4-hydroxy-cyclohexyl)pyrazin-2-yl)-2-fluoro-N-((S)-1-(3-fluoro-5-iodophenyl)-2-(methylamino)ethyl)benzamide] | 0.0205 |

Now from value to compound:

| IC50 [nM] | SMILES |
| --- | --- |
| 1050 | Nc1ncc([C@H]2CC[C@@H](O)CC2)nc1-c1ccc(C(=O)N[C@H](CO)c2cccc(C(F)(F)F)c2)c(F)c1 [Example 341, 4-(3-amino-6-((1s,4R)-4-hydroxy-cyclohexyl)pyrazin-2-yl)-2-fluoro-N-((S)-2-hydroxy-1-(3-(trifluoromethyl)phenyl)ethyl) benzamide] |
| 0.0175 | Nc1ncc([C@H]2CC[C@H](O)CC2)nc1-c1ccc(C(=O)N[C@H](CO)c2cccc(I)c2)c(F)c1 [Example 346, 4-(3-amino-6-((1r,4S)-4-hydroxy-cyclohexyl)pyrazin-2-yl)-2-fluoro-N-((S)-2-hydroxy-1-(3-iodophenyl)ethyl) benzamide] |
| 0.193 | Nc1ncc([C@H]2CC[C@@H](O)CC2)nc1-c1ccc(C(=O)N[C@H](CO)c2cccc(I)c2)c(F)c1 [Example 347, 4-(3-amino-6-((1s,4R)-4-hydroxy-cyclohexyl)pyrazin-2-yl)-2-fluoro-N-((S)-2-hydroxy-1-(3-iodophenyl)ethyl) benzamide] |
